From patent US6989396B2, “Tropane alkaloid multidrug resistance inhibitors from Erythroxylum pervillei and use of the same” (The Board of Trustees of the University of Illinois, priority 2001, dated 2006)
“And” between values parts separate entries of the source, which are not always exact repeats. Equal entries are not always repeated. Where two headings read alike, the source gives them in different places. Marks after values point to notes of the source that are not given here.

Columns and labels:
[1] = biological target: T1, Pgp (KB-V1 cell membrane vesicles) (Homo sapiens, UniProt P08183); assay: [3H]Vinblastine accumulation with KB-V1 cell membrane vesicles; assay type: binding
T1 construct: Cell membrane vesicles were prepared from KB-V1 cells following literature procedures; endogenous in cells; host or cells: KB-V1 cells (vinblastine-selected multidrug-resistant KB line); plasma membrane vesicles
T1 sequence (P08183 whole entry): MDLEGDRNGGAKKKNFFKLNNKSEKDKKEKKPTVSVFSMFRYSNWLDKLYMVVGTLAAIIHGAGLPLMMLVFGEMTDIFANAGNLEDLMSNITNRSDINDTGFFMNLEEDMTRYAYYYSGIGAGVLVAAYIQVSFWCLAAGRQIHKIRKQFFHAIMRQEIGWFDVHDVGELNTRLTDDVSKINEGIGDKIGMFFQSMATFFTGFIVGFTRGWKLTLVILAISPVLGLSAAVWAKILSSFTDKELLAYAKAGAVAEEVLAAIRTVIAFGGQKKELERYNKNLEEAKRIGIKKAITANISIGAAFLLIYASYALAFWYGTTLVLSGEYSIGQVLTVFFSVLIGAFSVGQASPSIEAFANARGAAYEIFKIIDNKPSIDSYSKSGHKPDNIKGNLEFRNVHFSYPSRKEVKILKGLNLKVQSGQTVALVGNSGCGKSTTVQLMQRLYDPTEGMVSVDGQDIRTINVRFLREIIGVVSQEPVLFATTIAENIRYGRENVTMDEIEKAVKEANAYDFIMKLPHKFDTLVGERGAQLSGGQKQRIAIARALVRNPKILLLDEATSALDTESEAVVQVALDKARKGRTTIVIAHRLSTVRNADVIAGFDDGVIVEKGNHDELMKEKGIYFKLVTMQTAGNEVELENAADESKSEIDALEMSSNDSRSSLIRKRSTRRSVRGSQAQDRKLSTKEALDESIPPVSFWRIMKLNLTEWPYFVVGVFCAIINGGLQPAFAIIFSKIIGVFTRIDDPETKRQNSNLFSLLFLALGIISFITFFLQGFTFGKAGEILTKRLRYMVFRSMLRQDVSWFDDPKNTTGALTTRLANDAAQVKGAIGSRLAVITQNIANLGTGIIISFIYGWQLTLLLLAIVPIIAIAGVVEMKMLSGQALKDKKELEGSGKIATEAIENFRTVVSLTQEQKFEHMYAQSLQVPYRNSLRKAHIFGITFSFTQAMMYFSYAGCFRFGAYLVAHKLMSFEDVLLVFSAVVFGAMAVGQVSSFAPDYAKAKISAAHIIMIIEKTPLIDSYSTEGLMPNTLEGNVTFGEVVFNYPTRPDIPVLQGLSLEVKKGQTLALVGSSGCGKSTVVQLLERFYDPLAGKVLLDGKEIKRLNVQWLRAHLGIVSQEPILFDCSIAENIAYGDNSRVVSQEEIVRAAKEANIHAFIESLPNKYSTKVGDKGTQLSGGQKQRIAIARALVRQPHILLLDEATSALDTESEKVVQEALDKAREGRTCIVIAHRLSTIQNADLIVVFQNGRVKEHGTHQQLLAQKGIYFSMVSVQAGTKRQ
Protocol: [^3H]Vinblastine accumulation with KB-V1 vesicles. Cell membrane vesicles were prepared from KB-V1 cells following literature procedures (31, 32) with some modifications. Medium was removed from KB-V1 cells in log growth phase (about 80% confluence) and the cells were rinsed with ice-cold PBS followed by ice-cold PBS containing 2 mM EDTA. Aprotinin (1 mg/ml) was then added, and, after a 10 minutes incubation at room temperature, the cells were harvested by gentle aspiration with a serological pipette and collected by centrifugation (100×g for 5 minutes). The cells were suspended in 0.25 M sucrose buffer (0.01 M Tris-HCl, pH 7.5, containing 0.25 M sucrose, 0.2 mM CaCl2, 1 mM EDTA) and homogenized with a Polytron at 2,500 rpm for 30 seconds. […] The homogenate then was diluted with four volumes of 0.025 M sucrose solution (0.01 M Tris-HCl, pH 7.5, containing 0.025 M sucrose) and centrifuged (1,000×g for 10 minutes). […] The interface (about 5 ml) was collected and diluted with four volumes of 0.25 M sucrose, 0.01 M Tris-HCl, pH 7.5, and centrifuged at 100,000×g for 1 hour. The resulting vesicle pellet was suspended in PBS containing 1 mM phenylmethylsulfonyl fluoride, using a 25-gauge needle, and stored at −80° C. Protein content was determined using a bicinchoninic acid protein assay kit with BSA as a standard (33).
Vinblastine accumulation with membrane vesicles assays were performed in 96-well plates as described previously (23, 24). […] Various concentrations of test samples, dissolved in 5 μl of DMSO, were then added (final volume, 100 μl), and incubations were conducted at ambient temperature for 20 minutes. For kinetic studies, various concentrations of [^3H]vinblastine were used. Reactions were terminated by aspirating the contents of each well onto a glass filter filter (printed type A filtermats, Wallac) using a 96-well harvester (Harvester 96, Tomtec). […] Nonspecific binding was determined by performing similar incubations with reaction mixtures containing a 1,000-fold excess of unlabeled vinblastine. Nonspecific binding was subtracted from all total-binding data to yield specific binding.

KB-V1 cells = assay: Reversal of MDR, cell survival assay: KB-V1 with or without vinblastine; assay type: cell-based, human; conditions: for IC50: Homo sapiens, KB-V1, 72 hours
Protocol: One part of a natural product drug discovery program involves monitoring the potential of plant extracts to reverse multiple drug resistance. […] To investigate the potential of plant extracts or compounds to reverse multidrug-resistance, KB-V1 cells are treated with different concentrations of plant extracts or compounds in the presence (1 μg/ml) or absence of vinblastine.
(§1) Cytotoxic potential. The cytotoxic potential of test substances with KB-3, KB-V1 and KB-8-5 cells was determined as described previously (24). Briefly, various concentrations of test compounds (dissolved in 10 μl of 10% DMSO) were transferred to 96-well plates, and 190 μl aliquots of cell suspensions (5×10^4 cells/ml) were added to each well. The plates then were incubated for 72 hours at 37° C. (100% humidity with a 5% CO2 atmosphere in air), and 100 μl of cold 20% aqueous trichloroacetic acid were added to the growth medium in each well to fix the cells. The cultures were incubated at 4° C. for 30 minutes, washed, air-dried, stained with sulforhodamine B solution, and washed with 1% acetic acid. […] In each case, a zero-day control was performed by adding an equivalent number of cells to several wells and incubating at 37° C. for 30 minutes, and processing as described above. Optical density values obtained with the zero-day control were subtracted, and cell survival, relative to control (solvent-treated) cultures, was calculated. The cytotoxic potential of the compounds with CEM and CEM/VLB100 cells was determined as described by Beck et al. (30). Cells were grown in 24-well plates at a density of 5–6×10^5 cells/ml. At 48 hours, the cell number was determined using a Coulter Counter, with a channelizer to distinguish cells from debris.

Lu1, lung cancer = assay: In vitro cytotoxicity, human tumor panel: Lu1; assay type: cell-based; conditions: Homo sapiens, read-out: ED50 Lu1
Protocol: (§2) Cytotoxicity assay. Compounds 1–9 were evaluated for cytotoxic activity against a panel of human cancer cell lines, including KB-V1 in the presence and absence of VLB, according to an established protocol (68).

Col2, colon cancer = assay: In vitro cytotoxicity, human tumor panel: Col2; assay type: cell-based; conditions: Homo sapiens, read-out: ED50 Col2
Protocol: as §2

KB-8-5 cells [2] = assay: Reversal of MDR, cell survival assay: KB-8-5 with or without colchicine; assay type: cell-based, human; conditions: for Ratio of IC50 values KB-3/[KB-8-5 (+)] / Ratio of IC50 values [KB-8-5 (−)]/[KB-8-5 (+)]: colchicine 10 ng/ml
Protocol: as §1

CEM/VLB100 cells = assay: MDR reversal in drug-resistant human leukemia CEM/VLB100 cells; assay type: cell-based; conditions: for IC50: Homo sapiens
Protocol: as §1

KB-8-5 cells [3] = assay: In vivo hollow fiber test: KB-8-5; design: species or system NCr nu/nu mice
Protocol: In vivo hollow fiber test. […] Confluent monolayers of KB-3, KB-V1 or KB-8-5 cells were harvested, collected by centrifugation and resuspended in conditioned medium at a concentration of 7.5×10^5 cells/ml.
Test compounds were administrated once daily by intraperitoneal injection from day 3–6 after implantation. Body weights were measure daily.
After incubating at 37° C. for 4 hours, the culture medium was aspirated and the samples were washed twice with normal saline containing 2.5% protamine sulfate solution by overnight incubation at 4° C. […] The formazan was extracted from each sample with DMSO (250 μl/well) for 4 hours at room temperature on a rotation platform.

[4] = test system: SW626, human ovarian adenocarcinoma; assay: In vitro cytotoxicity, human tumor panel: SW626; assay type: cell-based; conditions: SW626, read-out: ED50 SW626
Protocol: as §2

[5] = test system: LNCaP, hormone-dependent prostate cancer; assay: In vitro cytotoxicity, human tumor panel: LNCaP; assay type: cell-based; conditions: Homo sapiens, LNCaP, read-out: ED50 LNCaP
Protocol: as §2

[6] = test system: KB, oral epidermoid carcinoma; assay: In vitro cytotoxicity, human tumor panel: KB; assay type: cell-based; conditions: Homo sapiens, read-out: ED50 KB
Protocol: as §2

[7] = vinblastine 1 μg/ml, listed as pervilleine A
[8] = pervilleine A 5 μM, verapamil 10 μM
[9] = summation of single-agent inhibitions

COc1cc(C=CC(=O)O[C@H]2[C@@H](O)[C@@H]3C[C@H](OC(=O)c4cc(OC)c(OC)c(OC)c4)C[C@H]2N3C)cc(OC)c1OC [Compound 3, 3α-(3,4,5-trimethoxybenzoyloxy)-6β-(3,4,5-trimethoxycinnamoyloxy)-7β-hydroxytropane]
fold reduction of [3H]vinblastine accumulation ([1]; 0–100 μM, 0.16 μM [3H]vinblastine): about 65 fold | IC50 ([1]; 0.16 μM [3H]vinblastine, 0.5 mM ATP, 20 minutes, ambient temperature): 3.84 µM | Ki ([1]; double-reciprocal plots, 0.015–0.16 μM [3H]vinblastine, read-out: Ki, competitive with respect to vinblastine binding): ~7.3 µM and 7.3 µM | mode of inhibition of vinblastine accumulation ([1]; kinetic analysis, double-reciprocal plots): competitive inhibition | IC50 (KB-V1 cells; absence of vinblastine, read-out: IC50 KB-V1 (−)): > 34 µM | IC50 (KB-V1 cells; presence of vinblastine (1 μg/ml), read-out: IC50 KB-V1 (+)): 0.36 µM | Ratio of IC50 values KB-3/[KB-V1 (+)] (KB-V1 cells; vinblastine 1 μg/ml, listed as Pervilleine A): 66.6^d | Ratio of IC50 values KB-3/[KB-V1 (+)] (KB-V1 cells; [7]): 66.6 | Ratio of IC50 values [KB-V1 (−)]/[KB-V1 (+)] (KB-V1 cells; [7]): > 95 | IC50 (Lu1, lung cancer): > 20 µg/mL | IC50 (Col2, colon cancer): > 20 µg/mL | IC50 (KB-8-5 cells [2]; Homo sapiens): 14 µM | Ratio of IC50 values KB-3/[KB-8-5 (+)] (KB-8-5 cells [2]; listed as Pervilleine A): 40.3^d | Ratio of IC50 values [KB-8-5 (−)]/[KB-8-5 (+)] (KB-8-5 cells [2]; listed as Pervilleine A): 23.3^d | Ratio of IC50 values KB-3/[KB-8-5 (+)] (KB-8-5 cells [2]; listed as pervilleine A): 40.3 | Ratio of IC50 values [KB-8-5 (−)]/[KB-8-5 (+)] (KB-8-5 cells [2]; listed as pervilleine A): 23.3 | IC50 (CEM/VLB100 cells; CEM/VLB100, 48 h, read-out: IC50 Modulator only): > 15 µM | IC50 (CEM/VLB100 cells; CEM/VLB100, read-out: IC50 (Modulator + Daunorubicin)): 0.065 µM | IC50 (CEM/VLB100 cells; CEM/VLB100, read-out: IC50 (Modulator + Vinblastine)): 0.02 µM | Ratio of IC50 values Daunorubicin/(Modulator + Daunorubicin) (CEM/VLB100 cells; [8]): 15^c | Ratio of IC50 values Modulator/(Modulator + Daunorubicin) (CEM/VLB100 cells; [8]): >231^c | Ratio of IC50 values Modulator/(Modulator + Vinblastine) (CEM/VLB100 cells; [8]): >750^c | Ratio of IC50 values Vinblastine/(Modulator + Vinblastine) (CEM/VLB100 cells; [8]): 250^c | Calculated inhibition (vinblastine + reversing agent as single agents), KB-8-5, i.p. site (KB-8-5 cells [3]; [9]): 4.5% | Calculated inhibition (vinblastine + reversing agent as single agents), KB-8-5, s.c. site (KB-8-5 cells [3]; [9]): 4.9% | Observed inhibition from coadministration with vinblastine, KB-8-5, s.c. site (KB-8-5 cells [3]; vinblastine 100 μg/kg + reversing agent 0.136 mmol/kg): 28 (P = 0.008) % | Observed inhibition from coadministration with vinblastine, KB-8-5, i.p. site (KB-8-5 cells [3]; vinblastine 100 μg/kg + reversing agent 0.136 mmol/kg, listed as pervilleine A): 74.7 (P < 0.0001) % | Growth inhibition, single agent, KB-8-5, s.c. site (KB-8-5 cells [3]; vinblastine 100 μg/kg, reversing agents 0.136 mmol/kg): 2.6% | Growth inhibition, single agent, KB-8-5, i.p. site (KB-8-5 cells [3]; vinblastine 100 μg/kg, reversing agents 0.136 mmol/kg, i.p. injection once daily days 3–6): 3.3% | IC50 [4]: > 20 µg/mL | IC50 [5]: > 20 µg/mL | IC50 [6]: > 20 µg/mL
